Data published in paper PMC7351026, “Serum Half-Lives for Short- and Long-Chain Perfluoroalkyl Acids after Ceasing Exposure from Drinking Water Contaminated by Firefighting Foam” (Environmental Health Perspectives, 2020).
Like-named read-outs stand apart in the source and are kept apart here.

Assays:
[1] = Population average serum elimination rate and half-life (linear mixed model, one compartment, first-order); conditions: for half-life: serum, oral
Method: Serum PFAS concentrations were log-transformed. Time was calculated as the elapsed days between supply of clean bottled water and […] blood sampling. We assumed one compartment, first-order elimination kinetics. In this kinetic model, the body is considered as one homogeneous volume in which mixing is instantaneous and from which PFAS could be absorbed, transferred, and eliminated according to the rate of elimination that is proportional to the concentration of PFAS in the body. Two methods were used to estimate serum elimination rate constant (k) and half-life for each PFAS:
Briefly, in the linear mixed model In Cij=αi+tijβ+Xiβ′+εij, Cij is the serum concentration of PFAS for individual i at sampling round j; αi is the subject-specific intercept (random intercept); tij is the time; β is the average slope; Xi is a vector of fixed covariates for individual i; β′ stands for the fixed effect coefficients; and εij is the random error term. We modified the model by excluding the subject-specific slope (random slope) due to a failure to converge after inclusion, which may be due to the limited number of study subjects. The negative value of the average slope ( −β ) is the population average k, and average half-life is calculated as ln2/k .
In the linear mixed model, we included only age and sex as covariates. We based covariate selection on factors that could conceivably confound the PFAS half-life estimation. Working task, duration of employment, number of glasses of water per day, blood donation, and pregnancy before mitigation of PFAS exposure from drinking water can influence the initial serum levels but would not be expected to influence the PFAS half-life.
A sensitivity analysis was performed using the same linear mixed model but with Cij as the serum levels after subtracting general background levels (using the median levels obtained from the nonexposed reference population). If the serum PFAS levels after subtraction were lower than the half of the background levels, they were replaced with half of the background levels.

[2] = Background serum PFAS levels in reference population from Karlshamn; assay type: in vivo, human; conditions: reference group from Karlshamn without PFAS contamination in drinking water, N=58, sampled 2016
Text: For comparison with Swedish general background PFAS serum levels, we referred to the PFAS levels observed in a reference population from Karlshamn, a municipality in southern Sweden without PFAS contamination in the municipal drinking water. In 2016, 226 individuals were sampled. Fifty-nine individuals were randomly selected for analyzing other short-chain PFAS than the legacy ones, using the same modified method as for the airport employees. Fifty-eight individuals within the same age range as the airport employees (i.e., >22 years of age ) were included in the comparison. For a detailed description of this population see Li et al. ([2018]).

[3] = cited from earlier work; for Estimated half-life (geometric mean): Chinese population, from renal clearance of single paired serum and urine samples, ref Zhang et al. 2013; for Average half-life: highly exposed general population from Ronneby, Sweden, 108 Swedes, 5 y follow-up, ref Li et al. 2019
Serum/water ratio = assay type: in vivo, human; conditions: median serum level of first samples (26 employees) divided by airport drinking-water level
Method: The ratio of serum and water concentration for each PFAS (serum/water ratio) was calculated based on median serum level in the first serum sample obtained from all 26 airport employees divided by the drinking-water concentration. This ratio is an indicator of PFAS accumulation in body.

[4] = PFAS levels in urine samples of airport employees, specific-gravity adjusted (LC/MS/MS); assay type: in vivo, human; conditions: for Specific gravity adjusted urine level, median (range): second to fifth samplings, 17 airport employees
Method: Only one employee provided a single urine sample. […] All employees provided written informed consent.
The samples were thawed 1–2 h, then mixed by vortex shaker and manual turning. […] For the urine samples, 50μL urine was mixed with 25μL of methanol and 25μL of a 50% acetonitrile solution containing isotopically labeled internal standards (see Table S1). Then samples were shaken vigorously for 30 min and centrifuged at 3,000×g for 10 min at room temperature.
Aliquots of 20μL of the sample were analyzed using LC/MS/MS. […] The analysis was performed in negative ion mode. The ion source temperature was at 350°C.
(§1) Urinary PFAS concentrations were specific-gravity adjusted. The ratio of urine and serum concentration for each PFAS (urine/serum ratio) at each sampling was calculated based on PFAS concentrations in paired serum and urine samples from 17 employees. Then the personal average urine/serum ratio was calculated using the mean value of repeated samplings for each employee.

[5] = Urine/serum ratio in paired samples; assay type: in vivo, human; conditions: for Personal average urine/serum ratio, median (range): mean of four paired samplings per subject, 17 airport employees
Method: as §1

[6] = population average, model with original serum levels, age and sex as covariates
[7] = population average, model with serum levels after subtraction of background exposure (sensitivity analysis)
[8] = 2nd sampling (October 2018), count 17
[9] = 3rd sampling (November, 2018), count 16
[10] = 4th sampling (December 2018), count 14
[11] = 5th sampling (January 2019), count 12

Molecule | Constant elimination rate (95% CI) [1, 6] | Half-life (95% CI) [1, 6] | Constant elimination rate (95% CI) [1, 7] | Half-life (95% CI) [1, 7] | PFAS serum level, median (range) [2] | Serum/water ratio (Serum/water ratio) | Specific gravity adjusted urinary level, 25 percentile [4, 8] | Specific gravity adjusted urinary level, 75 percentile [4, 8] | Specific gravity adjusted urinary level, Max [4, 8] | Specific gravity adjusted urinary level, Median [4, 8] | Specific gravity adjusted urinary level, Min [4, 8] | Specific gravity adjusted urinary level, 25 percentile [4, 9] | Specific gravity adjusted urinary level, 75 percentile [4, 9] | Specific gravity adjusted urinary level, Max [4, 9] [ng/mL] | Specific gravity adjusted urinary level, Median [4, 9] | Specific gravity adjusted urinary level, Min [4, 9] | Specific gravity adjusted urinary level, 25 percentile [4, 10] | Specific gravity adjusted urinary level, 75 percentile [4, 10] | Specific gravity adjusted urinary level, Max [4, 10] [ng/mL] | Specific gravity adjusted urinary level, Median [4, 10] | also measured
O=S(=O)(O)C(F)(C(F)(F)F)C(F)(F)C(F)(F)C(F)(F)C(F)(F)C(F)(F)C(F)(F)F (centres unmarked) [1m-PFOS, perfluoro-1-methylheptanesulfonate] | 0.55 (0.09, 1.01) yearly | 1.27 (0.69, 7.64) year | 0.75 (0.15, 1.36) yearly | 0.92 (0.51, 4.77) year | 0.18 ( <LOD –0.59) ng/mL | – | – | – | – | – | – | – | – | – | – | – | – | – | – | – | –
O=C(O)C(F)(F)C(F)(F)C(F)(F)C(F)(F)C(F)(F)C(F)(F)F [PFHpA, perfluoroheptanoic acid] | 4.11 (3.13, 5.09) yearly | – | – | – | – | 4.74 | 0.02 ng/mL | 0.04 ng/mL | 0.05 ng/mL | 0.03 ng/mL | < LOD | 0.01 ng/mL | 0.03 ng/mL | 0.08 | 0.02 ng/mL | < LOD | 0.01 ng/mL | 0.03 ng/mL | 0.06 | 0.02 ng/mL | Estimated half-life (geometric mean) ([3]; older females plus males): 1.0 y; Estimated half-life (geometric mean) ([3]; young females): 0.82 y; First-order apparent elimination half-life (geometric mean) ([3]; whole blood, five ski wax technicians, 7 months follow-up, ref Russell et al. 2015a): 70 days; half-life ([1]; human, Average serum half-life, population average, linear mixed model with original serum levels, 17 airport employees after end of drinking-water exposure): 62 days; half-life ([1]; human, Half-life (95% CI), population average, model with original serum levels, age and sex as covariates): 62.1 days; Specific gravity adjusted urinary level, Min [4, 10]: < LOD; Specific gravity adjusted urinary level, 25 percentile [4, 11]: < LOD; Specific gravity adjusted urinary level, 75 percentile [4, 11]: 0.03 ng/mL; Specific gravity adjusted urinary level, Max [4, 11]: 0.06 ng/mL; Specific gravity adjusted urinary level, Median [4, 11]: 0.02 ng/mL; Specific gravity adjusted urinary level, Min [4, 11]: < LOD; Specific gravity adjusted urine level, median (range) [4]: 0.025 ( <LOD –0.080) ng/mL; Personal average urine/serum ratio, median (range) [5]: 0.086 (0.018–0.32)
O=S(=O)(O)C(F)(F)C(F)(F)C(F)(F)C(F)(F)C(F)(F)C(F)(F)C(F)(F)F [PFHpS, perfluoroheptane sulfonic acid] | 0.48 (0.11, 0.84) yearly | 1.46 (0.83, 6.25) year | 0.51 (0.12, 0.9) yearly | 1.35 (0.77, 5.71) year | – | 81.3 | – | – | – | – | – | – | – | – | – | – | – | – | – | – | Average half-life [3]: 4.7 y; Average half-life longer than that of the PFCA with same number of carbon atoms ([1]; PFHpS vs PFHpA, PFOS vs PFOA): ~1.3 y; Average serum half-life ([1]; population average, linear mixed model with original serum levels, 17 airport employees after end of drinking-water exposure): 1.46 y; Reduction of half-life estimation after subtraction of background levels ([1]; sensitivity analysis vs model with original serum levels): 8%
O=C(O)C(F)(F)C(F)(F)C(F)(F)C(F)(F)C(F)(F)F [PFHxA, perfluorohexanoic acid] | – | 1.63 (NA) year | – | – | – | 1.15 | – | – | – | – | – | – | – | – | – | – | – | – | – | – | Apparent elimination half-life ([3]; whole blood, seven ski wax technicians, ref Russell et al. 2013): 32 days
O=S(=O)(O)C(F)(F)C(F)(F)C(F)(F)C(F)(F)C(F)(F)F [PFPeS, perfluoropentane sulfonic acid] | 1.1 (0.68, 1.51) yearly | 0.63 (0.46, 1.01) year | 1.1 (0.68, 1.52) yearly | 0.63 (0.46, 1.01) year | – | 38.3 | 0.06 ng/mL | 0.08 ng/mL | 0.11 ng/mL | 0.07 ng/mL | 0.04 ng/mL | 0.05 ng/mL | 0.09 ng/mL | 0.12 | 0.07 ng/mL | 0.02 ng/mL | 0.07 ng/mL | 0.08 ng/mL | 0.12 | 0.08 ng/mL | Average half-life [3]: 1.0 y; Half-life shorter than L-PFOS ([1]; human, in vivo): 4 times; Specific gravity adjusted urinary level, Min [4, 10]: 0.03 ng/mL; Specific gravity adjusted urinary level, 25 percentile [4, 11]: 0.06 ng/mL; Specific gravity adjusted urinary level, 75 percentile [4, 11]: 0.08 ng/mL; Specific gravity adjusted urinary level, Max [4, 11]: 0.09 ng/mL; Specific gravity adjusted urinary level, Median [4, 11]: 0.07 ng/mL; Specific gravity adjusted urinary level, Min [4, 11]: 0.05 ng/mL; Specific gravity adjusted urine level, median (range) [4]: 0.072 (0.021–0.12) ng/mL; Urine/serum ratio higher than L-PFOS ([5]; in vivo): 10 times; Personal average urine/serum ratio, median (range) [5]: 0.0089 (0.0057–0.026)
Perfluoro-2/6-methylheptanesulfonate [2/6m-PFOS] | 0.66 (0.29, 1.04) yearly | 1.04 (0.67, 2.42) year | 0.95 (0.39, 1.5) yearly | 0.73 (0.46, 1.76) year | 0.46 ( <LOD –1.4) ng/mL | – | < LOD | < LOD | < LOD | < LOD | < LOD | < LOD | < LOD | 0.04 | < LOD | < LOD | < LOD | < LOD | 1.60 | < LOD | Specific gravity adjusted urinary level, Min [4, 10]: < LOD; Specific gravity adjusted urinary level, 25 percentile [4, 11]: < LOD; Specific gravity adjusted urinary level, 75 percentile [4, 11]: < LOD; Specific gravity adjusted urinary level, Max [4, 11]: 0.03 ng/mL; Specific gravity adjusted urinary level, Median [4, 11]: < LOD; Specific gravity adjusted urinary level, Min [4, 11]: < LOD; Personal average urine/serum ratio, median (range) [5]: 0.0051 (0.00059–0.032)
perfluoro-3/4/5-methylheptanesulfonate [3/4/5m-PFOS] | 0.64 (0.18, 1.1) yearly | 1.09 (0.63, 3.96) year | 0.83 (0.24, 1.42) yearly | 0.83 (0.49, 2.84) year | 0.79 (0.10–2.2) ng/mL | – | – | – | – | – | – | – | – | – | – | – | – | – | – | – | –
